Measurements reported in patent US20250084409A1, “COMPOSITIONS AND METHODS FOR CAPPING RNAS” (Verve Therapeutics, Inc., priority 2022, published 2025).
Where two headings read alike, the source gives them in different places.

Tests used:
HeLa lysate = assay: Translation of luciferase mRNA in HeLa lysate in vitro translation kit; type: biochemical; settings: luminescence
Procedure: HeLa cells are cultured in RPMI with 10% FBS at 37° C. under 5% CO2 atmosphere. Cells are plated into an appropriately sized well plate per manufacturer's recommended seeding conditions. After overnight incubation, cells are checked for monolayer formation and then transfected using a transfection agent such as MessengerMAX. Solution A: the desired amount of luciferase mRNA is diluted in OptiMEM and mixed with Solution B: MessengerMAX in OptiMEM. After mixing solutions A and B, the mixture is incubated at room temperature for 20 minutes, and then added dropwise to each well of cells. The cells are then incubated at 37° C. for 12-72 hours to allow for expression of mRNA into protein. Cells are harvested and prepared for measuring luciferase protein levels per Promega luciferase assay system protocol. […] For example, luciferase encoding mRNA with 5′ end region motif, 1007a, was added to a commercially available HeLa lysate in vitro translation kit to produce luciferase protein. Luciferase protein activity as measured by luminescent light production in the presence of a luciferin substrate, was measured with a luminescence-detecting plate reader. Relative light units measured per this assay are proportional to the amount of luciferase protein translated from mRNA. […]

T7 RNA polymerase [1] = biological target: T1, T7 RNA polymerase (Escherichia phage T7, UniProt P00573)
T7 RNA polymerase [2] = biological target: T1, T7 RNA polymerase; settings: for production yield for ABE encoding mRNA: ABE mRNA MA004, IVT with T7 polymerase, 37° C., about 1-4 hours, UV spectrometry; for mRNA production yield: ABE mRNA MA079, 4 mM analog, 90 minutes, UV absorption
RIG-I = RIG-I activation in HEK-Lucia RIG-I reporter cells; type: cell-based
Procedure: (§1) LNPs are prepared and administered in vivo to mice as in Example 11(A,B). Blood is collected at appropriate time points, typically at intervals between 1-48 hours post-dose and terminal end point, and processed to serum or plasma per techniques well known in the art. Serum or plasma cytokine and chemokine levels are measured using V-PLEX cytokine and chemokine detection kits. Cytokine and chemokine levels are compared to animals treated with buffer alone as well as pre-dose sampling of the treatment animals. In some instances, the immune stimulation of capped mRNA is assessed after in vitro transfection to reporter cell lines such as HEK-Lucia RIG-I cell reporter model, which produces luciferase signal in the presence of IFN-stimulated response elements such as uncapped mRNA. This cell model is cultured and transfected as described in Example 7, and luciferase activity is measured using a luciferase activity kit and plate reader. It is known in the art that uncapped mRNA produces a RIG-I-dependent IFN immune response, and capped mRNA lessens this immune stimulation. […] The results of this example were compared using mRNA made with a commercially available 5′ end initiator, 1002a, as a reference.
RIG-I overexpressed reporter HEK293 cells were utilized to evaluate cap specific immune response. mRNA with different cap analogs were transfected to the reporter cells. This cell model is cultured and transfected as described in Example 7. The response was measured at 24 hours after transfection. RIG-I is a cytosolic pattern recognition receptor that is responsible for the type-1 interferon response and can respond to 5′ triphosphate of RNA.

T7 RNA polymerase [3] = biological target: T1, T7 RNA polymerase; type: biochemical; settings: for mRNA full-length purity: ABE mRNA MA004, capillary gel electrophoresis; for amount of full-length mRNA produced: initiator-to-NTP ratio ranging from 1:1 down to 1:5
NHP ANGPTL3 = assay: In vivo ABE base editing in NHP liver (LNP, NGS); settings: LNP with sgRNA targeting NHP ANGPTL3 and ABE mRNA, FIG. 8
Procedure: Lipid nanoparticles (LNPs) are generated by microfluidic mixing using the Precision Nanosystems NanoAssemblr system according to the manufacturer's protocol, with some optimization for individual payloads. The resulting LNPs are filtered using 0.2-micron filters and stored at 4° C. or frozen at −80° C.
LNPs used in these studies were prepared with sgRNA targeting ANGPTL3 and ABE encoding mRNAs with 5′ end region motifs as described in Example 11A, comprising chemically synthesized sgRNAs targeting the NHP ANGPTL3 genes and ABE8.8 mRNA in a 1:1 weight ratio. LNPs were administered to NHP (n=3 per group) by one single intravenous infusion in a total volume of 6 mL/kg. Livers were collected 16 days post dose for NGS measurements of editing efficiency. […]
Paired-end reads are analyzed with the CRISPResso2 pipeline (Clement, K. et al., Nat. Biotech. 2019, 37, 224-226). Briefly, low-quality reads are filtered out, adapter sequences are trimmed from the reads, and the paired-end reads are merged and aligned to the amplicon sequence. The editing percentage is calculated as the number of reads supporting […], over the total number of aligned reads. For ABE, the editing percentage is calculated as the number of reads supporting […], over the total number of aligned reads. […]

[4] = tested on: TNF-α, IFN-γ, IFN-α, IFN-β, MIP-1B, IP-10, IL-10, IL-6; assay: In vivo immunogenicity: serum cytokine and chemokine levels in mice; design: species or system mouse; settings: LNPs 1 mg/kg and 3 mg/kg
Procedure: as §1
In vivo immunogenicity was quantified as described in Example 12. Mice were treated with LNPs at a level of 1 mg/kg and 3 mg/kg, and serum was collected 3 hours and 24 hours post-injection. […] For comparison, cytokine measurements were also completed for mRNA comprising commercially available 5′ end initiator 1002a.

cells = assay: Cas9 protein expression in cells (antibody detection); type: cell-based; settings: 6 hours post transfection; low and high doses
Procedure: Protein expression is directly assessed via antibody detection of the Cas9 protein. The measured signal is compared to that of a recombinant Cas9 of known concentration to derive the Y-axis value. […] This is consistent at both low and high doses at 6 hours post transfection. At 24 hours after transfection, the potency difference between the analogs was less pronounced, but the trend generally remained consistent.

[5] = tested on: Primary human hepatocytes; assay: Luciferase expression in primary human hepatocytes; type: cell-based; settings: 6 hours after transfection, 106.3 ng of mRNA dose
From the text: The harvested cell lysate was subjected to conditions to derive a quantifiable fluorescent signal. This signal was then compared to analog 1002a to determine how structural differences may be related to the changes in expression. Primary human hepatocytes were subjected to two different doses of mRNA encoding for the protein luciferase made using the indicated test analogs. A single RNA molecule may be interpreted by protein synthesis machinery multiple times, so an analog that may increase the frequency of interpretation may be desirable as a 5′ initiator. This frequency of interpretation, or translation efficiency, may be determined by measuring the amount of protein produced in a population of cells exposed to a known amount of RNA at a given point following that exposure. The duration of expression may also be assessed to determine how an analog may sustain the observed expression, as the RNA molecule is eventually decayed within the cell thereby destroying its protein-encoding capacity. […] Similar protein expression profiles was also observed at 24 hours post transfection (FIG. 17b).

T7 polymerase = T7 polymerase (Escherichia phage T7, UniProt P00573); settings: J. Mol. Biol. (2007) 370, 256-268; read-out: Kd of T7 polymerase for the first initiating guanosine; cited from earlier work
[6] = serum 24 hours post-injection, baseline = about pre-injection level

T1 sequence (P00573 whole entry): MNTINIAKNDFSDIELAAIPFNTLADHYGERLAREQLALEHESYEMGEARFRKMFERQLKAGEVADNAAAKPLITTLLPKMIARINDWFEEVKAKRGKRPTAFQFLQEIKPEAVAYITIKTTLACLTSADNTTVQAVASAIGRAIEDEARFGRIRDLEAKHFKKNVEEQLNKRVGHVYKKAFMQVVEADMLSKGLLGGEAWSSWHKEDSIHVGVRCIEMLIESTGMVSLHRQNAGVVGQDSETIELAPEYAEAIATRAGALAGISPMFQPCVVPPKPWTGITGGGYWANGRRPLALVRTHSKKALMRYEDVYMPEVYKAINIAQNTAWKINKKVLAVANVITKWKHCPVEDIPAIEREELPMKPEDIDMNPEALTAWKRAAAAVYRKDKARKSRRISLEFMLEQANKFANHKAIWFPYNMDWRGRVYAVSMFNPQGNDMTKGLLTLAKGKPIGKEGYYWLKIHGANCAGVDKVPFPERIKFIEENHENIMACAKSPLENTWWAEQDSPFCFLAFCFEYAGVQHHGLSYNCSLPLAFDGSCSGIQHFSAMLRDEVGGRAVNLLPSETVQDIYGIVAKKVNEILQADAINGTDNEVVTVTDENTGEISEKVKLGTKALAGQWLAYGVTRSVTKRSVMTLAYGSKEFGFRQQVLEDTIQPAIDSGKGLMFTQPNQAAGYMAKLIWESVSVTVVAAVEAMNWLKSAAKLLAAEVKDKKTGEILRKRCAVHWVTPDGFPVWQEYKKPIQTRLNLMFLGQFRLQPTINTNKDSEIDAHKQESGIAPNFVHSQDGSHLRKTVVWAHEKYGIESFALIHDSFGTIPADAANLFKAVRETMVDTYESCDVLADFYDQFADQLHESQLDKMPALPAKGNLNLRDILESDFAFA
Sequence of T7 polymerase (P00573 whole entry): as above

SMILES	production yield for ABE encoding mRNA (T7 RNA polymerase [2])	mRNA production yield (T7 RNA polymerase [2])	mRNA full-length purity (T7 RNA polymerase [3])	amount of full-length mRNA produced (T7 RNA polymerase [3])	cytokines (TNF-α, IFN-γ, IFN-α, IFN-β, MIP-1B, IP-10, IL-10, IL-6) ([4]; serum 3 hours post-injection)	cytokines (TNF-α, IFN-γ, IFN-α, IFN-β, MIP-1B, IP-10, IL-10, IL-6) [4, 6]	Cas9 expression (cells)	other results
COC1C(OP([O-])(=S)OCC2OC(n3cnc4c(=O)[nH]c(N)nc43)C(O)C2O)C(COP(=O)(O)OP(=O)(O)OP(=O)(O)OCC2OC(n3c[n+](C)c4c(=O)[nH]c(N)nc43)C(O)C2O)OC1n1cnc2c(N)ncnc21 (stereo not drawn) [1007a, m^7G(ppp) Am(ps)G]	about 3.3 mg per 1 ml of IVT reaction	~4 mg/mL	about 88%	did not reduce	detectable	returned to baseline	largely similar among most analogs except 1007a_D1 and 1007a	luciferase activity relative to mRNA with initiator 1002a (HeLa lysate): around 2 ×; capping efficiency (T7 RNA polymerase [1]; initiator-to-NTP ratio ranging from 1:1 down to 1:2.5): > 90%; RIG-I activity as compared to uncapped mRNA (RIG-I; HEK-Lucia RIG-I cell reporter model, FIG. 9): reduced RIG-I activity; RIG-I activation as a result of the chemical modifications to the cap structure (RIG-I; HEK-Lucia RIG-I cell reporter model, reference 1002a): did not appear to increase RIG-I activation; base editing efficacy compared to mRNAs with 1002a 5′ end region motif (NHP ANGPTL3): lower or similar base editing efficacy
COC1C(O[P@@]([O-])(=S)OCC2OC(n3cnc4c(=O)[nH]c(N)nc43)C(O)C2O)C(COP(=O)(O)OP(=O)(O)OP(=O)(O)OCC2OC(n3c[n+](C)c4c(=O)[nH]c(N)nc43)C(O)C2O)OC1n1cnc2c(N)ncnc21 (stereo partly drawn) [1007a_D1, m^7G(ppp) Am(ps)G]	–	slightly lower	–	–	detectable	returned to baseline	largely similar among most analogs except 1007a_D1 and 1007a	RIG-I response (RIG-I; RIG-I overexpressed reporter HEK293 cells, 24 hours after transfection, FIG. 14): lowest RIG-I response; mRNA full-length purity (FLP) (T7 RNA polymerase [3]; ABE mRNA MA079, 4 mM analog, 90 minutes, electrophoretic separation): 79.4%
COC1C(O[P@]([O-])(=S)OCC2OC(n3cnc4c(=O)[nH]c(N)nc43)C(O)C2O)C(COP(=O)(O)OP(=O)(O)OP(=O)(O)OCC2OC(n3c[n+](C)c4c(=O)[nH]c(N)nc43)C(O)C2O)OC1n1cnc2c(N)ncnc21 (stereo partly drawn) [1007a_D2, m^7G(ppp) Am(ps)G]	–	~4 mg/mL	–	–	detectable	returned to baseline	–	relative luciferase expression [5]: a little increased protein expression
COC1C(OP(=O)(O)OCC2OC(n3cnc4c(=O)[nH]c(N)nc43)C(O)C2O)C(COP(=O)(O)OP(=O)([S-])OP(=O)(O)OCC2OC(n3c[n+](C)c4c(=O)[nH]c(N)nc43)C(O)C2O)OC1n1cnc2c(N)ncnc21 (stereo not drawn) [1107a, m^7G(ppsp) Am(p)G]	about 3.3 mg per 1 ml of IVT reaction	–	about 86%	did not reduce	–	–	–	capping efficiency (T7 RNA polymerase [1]; initiator-to-NTP ratio ranging from 1:1 down to 1:1.67): > 90%
Nc1nc2c(ncn2[C@@H]2O[C@H](COP(=O)(O)OP(=O)(O)OP(=O)(O)O)[C@@H](O)[C@H]2O)c(=O)[nH]1 [GTP]	–	–	–	–	–	–	–	Kd (T7 polymerase): 2 mM
COC1C(OP(=O)(O)OCC2OC(n3cnc4c(=O)[nH]c(N)nc43)C(O)C2O)C(COP(=O)(O)OP(=O)([O-])OP(=O)(O)OCC2OC(n3c[n+](Cc4ccc(Cl)cc4)c4c(=O)[nH]c(N)nc43)C(O)C2O)OC1n1cnc2c(N)ncnc21 (stereo not drawn) [compound 5231, 4-Cl-Bn7G(ppp) Am(p)G]	–	slightly lower	–	–	detectable	returned to baseline	–	–
